From patent publication US20070128217A1 (priority 2003, published 2007)

Experiments:
[1] = system: control sera (pooled serum of ten healthy LUMC hospital workers; commercial negative donor pooled serum from the Dutch bloodbank); format: binding, human; set-up: Binding of Control serum LUMC to linear peptides / Binding of Control serum Blood-bank to linear peptides / Binding of Control serum LUMC to looped peptides / Binding of Control Serum Blood-Bank to Looped peptides / Binding of Control serum LUMC to linear peptides of the protein M of SARS-CoV Urbani / Binding of Control serum Blood-bank to linear peptides of the protein M of SARS-CoV Urbani / Binding of Control serum LUMC to looped peptides of the protein M of SARS-CoV Urbani / Binding of Control Serum Blood-Bank to Looped peptides of the protein M of SARS-CoV Urbani: unit not given here
[2] = system: antibodies in sera from SARS patients (sera 1a, 1b, 2, 6, 37, 62, London, SARS-yellow, SARS-green); format: binding, human; set-up: Binding of serum 6 to linear peptides of protein X1 of SARS-CoV Urbani / Binding of serum 37 to linear peptides of protein X1 of SARS-CoV Urbani / Binding of serum 6 to looped/cyclic peptide (PEPSCAN-ELISA) / Binding of serum 37 to looped/cyclic peptide (PEPSCAN-ELISA) / Binding of serum 37 to looped/cyclic peptides of protein X1 of SARS-CoV Urbani / Binding of serum 6 to linear peptides of protein X2 / Binding of serum 37 to linear peptides of protein X2 / Binding of serum 37 to looped/cyclic peptides of protein X2 of SARS-CoV Urbani / Binding of serum 6 to linear peptides of protein M of SARS-CoV Urbani / Binding of serum 37 to linear peptides of protein M of SARS-CoV Urbani / Binding of serum 6 to looped/cyclic peptides of protein M of SARS-CoV Urbani / Binding of serum 37 to looped/cyclic peptides of protein M of SARS-CoV Urbani / Binding of serum 6 to linear peptides of protein X3 of SARS-CoV Urbani / Binding of serum 37 to linear peptides of protein X3 of SARS-CoV Urbani / Binding of serum 37 to looped/cyclic peptides of protein X3 of SARS-CoV Urbani / Binding of serum 6 to linear peptides of protein X4 of SARS-CoV Urbani / Binding of serum 37 to linear peptides of protein X4 of SARS-CoV Urbani / Binding of serum 37 to looped/cyclic peptides of protein X4 of SARS-CoV Urbani / Binding of serum 6 to linear peptides of protein X5 of SARS-CoV Urbani / Binding of serum 37 to linear peptides of protein X5 of SARS-CoV Urbani / Binding of serum 37 to looped/cyclic peptides of protein X5 of SARS-CoV Urbani / Binding of serum 6 to linear peptides of protein N of SARS-CoV Urbani / Binding of serum 37 to linear peptides of protein N of SARS-CoV Urbani / Binding of serum 6 to linear peptide (PEPSCAN-ELISA) / Binding of serum 1a to looped/cyclic peptides of protein N of SARS-CoV Urbani / Binding of serum 1b to looped/cyclic peptides of protein N of SARS-CoV Urbani / Binding of serum 2 to looped/cyclic peptides of protein N of SARS-CoV Urbani / Binding of serum 6 to looped/cyclic peptides of protein N of SARS-CoV Urbani / Binding of serum 37 to looped/cyclic peptides of protein N of SARS-CoV Urbani / Binding of serum 62 to looped/cyclic peptides of protein N of SARS-CoV Urbani / Binding of serum London to looped/cyclic peptides of protein N of SARS-CoV Urbani / Binding of serum SARS-green to looped/cyclic peptides of protein N of SARS-CoV Urbani: unit not given here
[3] = system: rabbit serum obtained by immunizing a rabbit with the SARS-CoV strain Frankfurt 1; format: binding; set-up: Binding of a rabbit serum to linear peptides / Binding of a rabbit serum to looped peptides / Rabbit serum linear peptides / Rabbit serum looped peptides / Binding of a rabbit serum to linear peptides of protein N of SARS-CoV Urbani (Rabbit serum linear peptides) / Binding of a rabbit serum to looped/cyclic peptides of protein N of SARS-CoV Urbani (Rabbit serum looped peptides): unit not given here

## LMWLSYFVASFRLFA
[1]
  Binding of Control Serum Blood-Bank to Looped peptides of the protein M of SARS-CoV Urbani: 0.6
  Binding of Control serum Blood-bank to linear peptides of the protein M of SARS-CoV Urbani: 0.5
  Binding of Control serum LUMC to linear peptides of the protein M of SARS-CoV Urbani: 0.4
  Binding of Control serum LUMC to looped peptides of the protein M of SARS-CoV Urbani: 0.6
[2]
  Binding of serum 1a to linear peptides of protein M of SARS-CoV Urbani: 0.6
  Binding of serum 1b to linear peptides of protein M of SARS-CoV Urbani: 0.4
  Binding of serum 2 to linear peptides of protein M of SARS-CoV Urbani: 0.4
  Binding of serum 6 to linear peptides of protein M of SARS-CoV Urbani: 0.3
  Binding of serum 37 to linear peptides of protein M of SARS-CoV Urbani: 0.3
  Binding of serum 62 to linear peptides of protein M of SARS-CoV Urbani: 0.4
  Binding of serum London to linear peptides of protein M of SARS-CoV Urbani: 0.3
  Binding of serum SARS-green to linear peptides of protein M of SARS-CoV Urbani: 0.5
  Binding of serum SARS-yellow to linear peptides of protein M of SARS-CoV Urbani: 0.1
  Recognition of the peptide by sera of SARS-CoV infected individuals, and form (linear, looped/cyclic) in which it is recognized: recognized in looped/cyclic form
[3]
  Rabbit serum linear peptides: 0.0
  Rabbit serum looped peptides: 0.3

## IHTIDGSSGVANPAM
[1]
  Binding of Control Serum Blood-Bank to Looped peptides: 0.4
  Binding of Control serum Blood-bank to linear peptides: 0.7
  Binding of Control serum LUMC to linear peptides: 0.8
  Binding of Control serum LUMC to looped peptides: 0.4
[2]
  Binding of serum 1a to linear peptides of protein X1 of SARS-CoV Urbani: 0.7
  Binding of serum 1a to looped/cyclic peptides of protein X1 of SARS-CoV Urbani: 0.5
  Binding of serum 1b to linear peptides of protein X1 of SARS-CoV Urbani: 0.7
  Binding of serum 1b to looped/cyclic peptides of protein X1 of SARS-CoV Urbani: 0.4
  Binding of serum 2 to linear peptides of protein X1 of SARS-CoV Urbani: 0.8
  Binding of serum 2 to looped/cyclic peptides of protein X1 of SARS-CoV Urbani: 0.3
  Binding of serum 6 to linear peptides of protein X1 of SARS-CoV Urbani: 0.5
  Binding of serum 6 to looped/cyclic peptides of protein X1 of SARS-CoV Urbani: 0.2
  Binding of serum 37 to linear peptides of protein X1 of SARS-CoV Urbani: 0.7
  Binding of serum 37 to looped/cyclic peptides of protein X1 of SARS-CoV Urbani: 0.3
  Binding of serum 62 to linear peptides of protein X1 of SARS-CoV Urbani: 0.8
  Binding of serum 62 to looped/cyclic peptides of protein X1 of SARS-CoV Urbani: 0.3
  Binding of serum London to linear peptides of protein X1 of SARS-CoV Urbani: 0.5
  Binding of serum London to looped/cyclic peptides of protein X1 of SARS-CoV Urbani: 0.2
  Binding of serum SARS-green to linear peptides of protein X1 of SARS-CoV Urbani: 0.5
  Binding of serum SARS-green to looped/cyclic peptides of protein X1 of SARS-CoV Urbani: 0.3
  Binding of serum SARS-yellow to linear peptides of protein X1 of SARS-CoV Urbani: 0.6
  Binding of serum SARS-yellow to looped/cyclic peptides of protein X1 of SARS-CoV Urbani: 0.2
[3]
  Binding of a rabbit serum to linear peptides: 0.1
  Binding of a rabbit serum to looped peptides: 0.5

## QFLYLYALIYFLQCI
[1]
  Binding of Control Serum Blood-Bank to Looped peptides: 0.5
  Binding of Control serum Blood-bank to linear peptides: 0.5
  Binding of Control serum LUMC to linear peptides: 0.4
  Binding of Control serum LUMC to looped peptides: 0.6
[2]
  Binding of serum 1a to linear peptides of protein X1 of SARS-CoV Urbani: 0.7
  Binding of serum 1a to looped/cyclic peptide (PEPSCAN-ELISA): 0.5
  Binding of serum 1b to linear peptides of protein X1 of SARS-CoV Urbani: 0.5
  Binding of serum 1b to looped/cyclic peptide (PEPSCAN-ELISA): 0.3
  Binding of serum 2 to linear peptides of protein X1 of SARS-CoV Urbani: 0.5
  Binding of serum 2 to looped/cyclic peptide (PEPSCAN-ELISA): 0.3
  Binding of serum 6 to linear peptides of protein X1 of SARS-CoV Urbani: 0.4
  Binding of serum 6 to looped/cyclic peptide (PEPSCAN-ELISA): 0.2
  Binding of serum 37 to linear peptides of protein X1 of SARS-CoV Urbani: 0.6
  Binding of serum 37 to looped/cyclic peptide (PEPSCAN-ELISA): 0.5
  Binding of serum 62 to linear peptides of protein X1 of SARS-CoV Urbani: 0.5
  Binding of serum 62 to looped/cyclic peptide (PEPSCAN-ELISA): 0.5
  Binding of serum London to linear peptides of protein X1 of SARS-CoV Urbani: 0.2
  Binding of serum London to looped/cyclic peptide (PEPSCAN-ELISA): 0.2
  Binding of serum SARS-green to linear peptides of protein X1 of SARS-CoV Urbani: 0.2
  Binding of serum SARS-green to looped/cyclic peptide (PEPSCAN-ELISA): 0.2
  Binding of serum SARS-yellow to linear peptides of protein X1 of SARS-CoV Urbani: 0.5
  Binding of serum SARS-yellow to looped/cyclic peptide (PEPSCAN-ELISA): 0.3
[3]
  Binding of a rabbit serum to linear peptides: 0.1
  Binding of a rabbit serum to looped peptides: 0.4

## TLACFVLAAVYRINW
[1]
  Binding of Control Serum Blood-Bank to Looped peptides of the protein M of SARS-CoV Urbani: 0.8
  Binding of Control serum Blood-bank to linear peptides of the protein M of SARS-CoV Urbani: 0.5
  Binding of Control serum LUMC to linear peptides of the protein M of SARS-CoV Urbani: 0.2
  Binding of Control serum LUMC to looped peptides of the protein M of SARS-CoV Urbani: 0.7
[2]
  Binding of serum 1a to linear peptides of protein M of SARS-CoV Urbani: 0.7
  Binding of serum 1a to looped/cyclic peptides of protein M of SARS-CoV Urbani: 0.7
  Binding of serum 1b to linear peptides of protein M of SARS-CoV Urbani: 0.5
  Binding of serum 1b to looped/cyclic peptides of protein M of SARS-CoV Urbani: 0.5
  Binding of serum 2 to linear peptides of protein M of SARS-CoV Urbani: 0.5
  Binding of serum 2 to looped/cyclic peptides of protein M of SARS-CoV Urbani: 0.6
  Binding of serum 6 to linear peptides of protein M of SARS-CoV Urbani: 0.3
  Binding of serum 6 to looped/cyclic peptides of protein M of SARS-CoV Urbani: 0.7
  Binding of serum 37 to linear peptides of protein M of SARS-CoV Urbani: 0.8
  Binding of serum 37 to looped/cyclic peptides of protein M of SARS-CoV Urbani: 0.6
  Binding of serum 62 to linear peptides of protein M of SARS-CoV Urbani: 0.8
  Binding of serum 62 to looped/cyclic peptides of protein M of SARS-CoV Urbani: 0.6
  Binding of serum London to linear peptides of protein M of SARS-CoV Urbani: 0.3
  Binding of serum London to looped/cyclic peptides of protein M of SARS-CoV Urbani: 0.3
  Binding of serum SARS-green to linear peptides of protein M of SARS-CoV Urbani: 0.3
  Binding of serum SARS-green to looped/cyclic peptides of protein M of SARS-CoV Urbani: 0.2
  Binding of serum SARS-yellow to linear peptides of protein M of SARS-CoV Urbani: 0.0
  Binding of serum SARS-yellow to looped/cyclic peptides of protein M of SARS-CoV Urbani: 0.5
[3]
  Rabbit serum linear peptides: 0.5
  Rabbit serum looped peptides: 0.1

## HTYQLRARSVSPKLF
[1]
  Binding of Control Serum Blood-Bank to Looped peptides: 0.8
  Binding of Control serum Blood-bank to linear peptides: 1.0
  Binding of Control serum LUMC to linear peptides: 0.9
  Binding of Control serum LUMC to looped peptides: 0.7
[2]
  Binding of serum 1a to linear peptides of protein X4 of SARS-CoV Urbani: 0.7
  Binding of serum 1a to looped/cyclic peptides of protein X4 of SARS-CoV Urbani: 0.8
  Binding of serum 1b to linear peptides of protein X4 of SARS-CoV Urbani: 0.8
  Binding of serum 1b to looped/cyclic peptides of protein X4 of SARS-CoV Urbani: 0.5
  Binding of serum 2 to linear peptides of protein X4 of SARS-CoV Urbani: 0.6
  Binding of serum 2 to looped/cyclic peptides of protein X4 of SARS-CoV Urbani: 0.8
  Binding of serum 6 to linear peptides of protein X4 of SARS-CoV Urbani: 1.0
  Binding of serum 6 to looped/cyclic peptides of protein X4 of SARS-CoV Urbani: 0.8
  Binding of serum 37 to linear peptides of protein X4 of SARS-CoV Urbani: 1.0
  Binding of serum 37 to looped/cyclic peptides of protein X4 of SARS-CoV Urbani: 0.6
  Binding of serum 62 to linear peptides of protein X4 of SARS-CoV Urbani: 0.9
  Binding of serum 62 to looped/cyclic peptides of protein X4 of SARS-CoV Urbani: 0.6
  Binding of serum London to linear peptides of protein X4 of SARS-CoV Urbani: 0.8
  Binding of serum London to looped/cyclic peptides of protein X4 of SARS-CoV Urbani: 0.3
  Binding of serum SARS-green to linear peptides of protein X4 of SARS-CoV Urbani: 0.7
  Binding of serum SARS-green to looped/cyclic peptides of protein X4 of SARS-CoV Urbani: 0.4
  Binding of serum SARS-yellow to linear peptides of protein X4 of SARS-CoV Urbani: 0.5
  Binding of serum SARS-yellow to looped/cyclic peptides of protein X4 of SARS-CoV Urbani: 0.8
[3]
  Recognition of the peptide by the rabbit serum: recognized
